Measured values taken from patent US20130281396A1, “TREATMENT OF DISEASES BY EPIGENETIC REGULATION” (RVX Therapeutics Inc., priority 2012, published 2013).
Values after ≈ are worked out from the molar mass of the structure shown.

Target: T1, Brd4 bromodomain 1 (Homo sapiens, UniProt O60885)
T1 construct: Illustrative results with the first bromodomain of Brd4; made in house; host or cells: E. coli BL21(DE3)
Assay: Inhibition of tetra-acetylated histone H4 binding to BET bromodomain (TR-FRET)
Details: His-tagged first bromodomain of Brd4 (200 nM), biotinylated tetra-acetylated histone H4 peptide, 2 hours at room temperature
Method: Proteins were cloned and overexpressed with a N-terminal 6×His tag, then purified by nickel affinity followed by size exclusion chromatography. Briefly, E. coli BL21(DE3) cells were transformed with a recombinant expression vector encoding N-terminally Nickel affinity tagged bromodomains from Brd2, Brd3, Brd4. Cell cultures were incubated at 37° C. with shaking to the appropriate density and induced overnight with IPTG. The supernatant of lysed cells was loaded onto Ni-IDA column for purification. Eluted protein was pooled, concentrated and further purified by size exclusion chromatography. Fractions representing monomeric protein were pooled, concentrated, aliquoted, and frozen at −80° C. for use in subsequent experiments.
Binding of tetra-acetylated histone H4 and BET bromodomains was confirmed by a Time Resolved Fluorescence Resonance Energy Transfer (TR-FRET) method. N-terminally His-tagged bromodomains (200 nM) and biotinylated tetra-acetylated histone H4 peptide (25-50 nM, Millipore) were incubated in the presence of Europium Cryptate-labeled streptavidin (Cisbio Cat. #610SAKLB) and XL665-labeled monoclonal anti-His antibody (Cisbio Cat. #61HISXLB) in a white 96 well microtiter plate (Greiner). For inhibition assays, serially diluted test compound was added to these reactions in a 0.2% final concentration of DMSO. Final buffer concentrations were 30 mM HEPES pH 7.4, 30 mM NaCl, 0.3 mM CHAPS, 20 mM phosphate pH 7.0, 320 mM KF, 0.08% BSA). After 2 hours incubation at room temperature, the fluorescence by FRET was measured at 665 and 620 nm by a SynergyH4 plate reader (Biotek). Illustrative results with the first bromodomain of Brd4. The binding inhibitory activity was shown by a decrease in 665 nm fluorescence relative to 620 nm. IC50 values were determined from a dose response curve.

SMILES	FRET activity (<50 uM)
O=c1cc(-c2ccc(O)cc2)oc2ncccc12 [Example 1, 2-(4-Hydroxy-phenyl)-pyrano[2,3-b]pyridin-4-one]	Active
O=c1cc(-c2ccc(O)cc2)oc2cccnc12 [Example 2, 2-(4-Hydroxy-phenyl)-pyrano[3,2-b]pyridin-4-one]	Active
O=c1cc(-c2ccc(O)c(Br)c2)oc2ncccc12 [Example 8, 2-(3-Bromo-4-hydroxyphenyl)-4H-pyrano[2,3-b]pyridin-4-one]	Active

Tested on: Caco-2 cells
Assay: Caco-2 permeability (in vitro Caco-2 intestinal transport model)
Type: in vitro ADME
Details: not given
Description: The Caco-2 cell drug transport model is widely used for screening compounds in drug discovery to assess intestinal transport and predict absorption rates.

SMILES	Apparent permeability (Papp) [×10⁻⁶ cm/s]	% Transported Paap [×10⁻⁶ cm/s]
O=c1cc(-c2ccc(O)cc2)oc2cc(O)cc(O)c12 [5,7-dihydroxy-2-(4-hydroxyphenyl)-4H-chomen-4-one]	1.5	
CCCO [Propanol]		10.1
Oc1ccc(C=Cc2cc(O)cc(O)c2)cc1 [Resveratrol]	3.34	

Tested on: not given
Assay: not given
Details: not given

SMILES	melting point [°C]
O=c1cc(-c2ccc(O)cc2)oc2cnccc12 [Example 3, 2-(4-Hydroxyphenyl)-pyrano[2,3-c]pyridin-4-one]	294 to 296
O=c1cc(-c2ccc(O)c(F)c2)oc2ncccc12 [Example 4, 2-(3-Fluoro-4-hydroxyphenyl)pyrano[2,3-b]pyridine-4-one]	267 to 268
Cc1cc(-c2cc(=O)c3cccnc3o2)ccc1O [Example 5, 2-(4-Hydroxy-3-methylphenyl)-4H-pyrano[2,3-b]pyridine-4-one]	300 to 302
O=c1cc(-c2ccc(O)cc2)oc2ccncc12 [Example 6, 2-(4-Hydroxyphenyl)-4H-pyrano[3,2-c]pyridin-4-one]	306 to 308
O=c1cc(-c2ccc(O)c(Cl)c2)oc2ncccc12 [Example 7, 2-(3-Chloro-4-hydroxyphenyl)-4H-pyrano[2,3-b]pyridine-4-one]	259 to 262
O=c1cc(-c2ccc(O)c(Br)c2)oc2ncccc12 [Example 8, 2-(3-Bromo-4-hydroxyphenyl)-4H-pyrano[2,3-b]pyridin-4-one]	267 to 272
COc1cc(-c2cc(=O)c3cccnc3o2)ccc1O [Example 9, 2-(4-Hydroxy-3-methoxyphenyl)-4H-pyrano[2,3-b]pyridine-4-one]	253 to 255
COc1ccc(-c2cc(=O)c3cccnc3o2)cc1 [Example 10, 2-(4-Methoxyphenyl)-4H-pyrano[2,3-b]pyridine-4-one]	269 to 270
O=c1cc(-c2ccc(OCCO)cc2)oc2ncccc12 [Example 11, 2-(4-(2-Hydroxyethoxy)phenyl)-4H-pyrano[2,3-b]pyridine-4-one]	157 to 159
CC(=O)Oc1ccc(-c2cc(=O)c3cccnc3o2)cc1 [Example 12, 4-(4-Oxo-4H-pyrano[2,3-b]pyridine-2-yl)phenyl acetate]	167 to 169
O=c1cc(-c2ccc(O)c(CO)c2)oc2ncccc12 [Example 13, 2-(4-Hydroxy-3-(hydroxymethyl)phenyl)-4H-pyrano[2,3′-b]pyridine-4-one]	226 to 227

Tested on: not given
Assay: not given
Details: value from S. P. Ng et al. (2005), footnote *; cited from earlier work

SMILES	Solubility (PBS)
O=c1cc(-c2ccc(O)cc2)oc2cc(O)cc(O)c12 [5,7-dihydroxy-2-(4-hydroxyphenyl)-4H-chomen-4-one]	3.37* μM

Same assay, conditions: value from S. P. Ng et al. (2005), footnote *; listed as apigenin; cited from earlier work

SMILES	Solubility (PBS) [µM]
O=c1cc(-c2ccc(O)cc2)oc2cc(O)cc(O)c12 [5,7-dihydroxy-2-(4-hydroxyphenyl)-4H-chomen-4-one]	3.27 (≈ 0.884 µg/mL)
